Source: patent publication US6380387B1, “4-Pyrimidinyl-n-acyl-l phenylalanines” (Hoffmann-La Roche Inc., priority 1999, dated 2002)

What follows are compounds tested against T1, VLA-4 (α4β1 integrin) (Homo sapiens, UniProt P05556+P13612) (assay: Ramos (VLA-4)/VCAM-1 Cell-Based Screening Assay (cell adhesion)). Settings: Calcein-AM labeled Ramos cells adhering to immobilized recombinant human VCAM-1.
T1 construct: Ramos cells bearing cell-surface VLA-4; endogenous in cells; host or cells: Ramos cells
T1 sequence (P13612 34-1032): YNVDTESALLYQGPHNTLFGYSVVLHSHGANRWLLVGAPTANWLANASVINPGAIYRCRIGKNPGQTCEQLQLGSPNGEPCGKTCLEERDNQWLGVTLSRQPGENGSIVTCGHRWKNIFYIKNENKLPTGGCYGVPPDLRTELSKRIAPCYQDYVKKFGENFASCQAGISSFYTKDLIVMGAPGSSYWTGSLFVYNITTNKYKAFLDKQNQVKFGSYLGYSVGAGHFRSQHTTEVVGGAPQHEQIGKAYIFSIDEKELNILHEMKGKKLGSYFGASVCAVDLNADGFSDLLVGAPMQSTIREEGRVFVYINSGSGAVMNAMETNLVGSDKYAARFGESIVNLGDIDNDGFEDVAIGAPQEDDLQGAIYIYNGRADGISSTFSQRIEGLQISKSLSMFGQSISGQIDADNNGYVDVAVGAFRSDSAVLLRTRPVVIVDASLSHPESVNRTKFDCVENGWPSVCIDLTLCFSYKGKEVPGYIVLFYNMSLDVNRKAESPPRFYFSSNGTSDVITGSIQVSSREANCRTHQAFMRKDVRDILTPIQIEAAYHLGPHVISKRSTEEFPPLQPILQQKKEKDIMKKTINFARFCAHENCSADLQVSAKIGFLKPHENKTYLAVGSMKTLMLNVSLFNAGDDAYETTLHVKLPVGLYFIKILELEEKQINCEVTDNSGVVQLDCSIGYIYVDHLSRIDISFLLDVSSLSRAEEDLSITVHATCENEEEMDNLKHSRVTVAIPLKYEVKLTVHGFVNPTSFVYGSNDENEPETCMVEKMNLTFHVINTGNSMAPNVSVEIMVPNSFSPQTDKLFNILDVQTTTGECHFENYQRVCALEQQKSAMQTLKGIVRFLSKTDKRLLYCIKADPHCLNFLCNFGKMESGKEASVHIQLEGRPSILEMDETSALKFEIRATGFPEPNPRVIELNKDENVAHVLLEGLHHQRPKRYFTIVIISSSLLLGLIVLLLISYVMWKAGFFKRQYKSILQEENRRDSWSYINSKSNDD
T1 sequence (P05556 21-798): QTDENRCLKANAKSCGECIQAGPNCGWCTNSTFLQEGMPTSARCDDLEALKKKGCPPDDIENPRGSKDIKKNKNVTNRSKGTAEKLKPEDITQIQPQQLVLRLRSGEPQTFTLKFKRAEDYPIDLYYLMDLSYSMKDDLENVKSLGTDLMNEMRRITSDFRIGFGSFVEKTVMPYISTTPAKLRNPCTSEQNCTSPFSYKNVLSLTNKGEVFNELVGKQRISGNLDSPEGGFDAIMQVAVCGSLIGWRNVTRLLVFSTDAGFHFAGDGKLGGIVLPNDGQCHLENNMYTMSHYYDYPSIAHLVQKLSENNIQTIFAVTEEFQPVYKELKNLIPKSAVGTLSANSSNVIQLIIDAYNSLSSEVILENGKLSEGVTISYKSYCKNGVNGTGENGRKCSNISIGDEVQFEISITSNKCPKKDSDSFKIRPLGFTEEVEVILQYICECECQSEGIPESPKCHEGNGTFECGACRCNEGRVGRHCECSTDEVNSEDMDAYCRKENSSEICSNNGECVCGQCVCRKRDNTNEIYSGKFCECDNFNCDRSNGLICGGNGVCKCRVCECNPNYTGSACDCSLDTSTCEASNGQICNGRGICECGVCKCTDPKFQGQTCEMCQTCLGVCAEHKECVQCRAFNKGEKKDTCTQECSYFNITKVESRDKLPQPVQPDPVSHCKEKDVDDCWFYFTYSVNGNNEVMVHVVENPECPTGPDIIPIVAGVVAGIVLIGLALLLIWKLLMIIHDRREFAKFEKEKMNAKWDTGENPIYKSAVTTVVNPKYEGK
Description: Ramos (VLA-4)/VCAM-1 Cell-Based Screening Assay Protocol
Soluble recombinant human VCAM-1 (mixture of 5- and 7-Ig domain) was purified from CHO cell culture media by inmmunoaffinity chromatography and maintained in a solution containing 0.1 M Tris-glycine (pH 7.5), 0.1 M NaCl, 5 mM EDTA, 1 mM PMSF, […] NaN3 and 10 μg/mL leupeptin. Calcein-AM was purchased from Molecular Probes Inc.
VLA-4 (α4β1 integrin) antagonist activity, defined as ability to compete with cell-surface VLA-4 for binding to immobilized VCAM-1, was quantitated using a Ramos-VCAM-1 cell adhesion assay. Ramos cells bearing cell-surface VLA-4, were labeled with a fluorescent dye (Calcein-AM) and allowed to bind VCAM-1 in the presence or absence of test compounds. A reduction in fluorescence intensity associated with adherent cells (% inhibition) reflected competitive inhibition of VLA-4 mediated cell adhesion by the test compound.
Initially, this entailed coating 96 well plates (Nunc Maxisorp) with recombinant human VCAM-1 (100 ng in 100 μl PBS), sealing each plate and allowing the plates to stand at 4° C. for ≈18 hr. The VCAM-coated plates were subsequently washed twice with 0.05% Tween-20 in PBS, and then blocked for 1 hr (room temperature) with 200 μl of Blocking Buffer (1% BSA/0.02% thimerosal) to reduce non-specific binding. Following the incubation with Blocking Buffer, plates were inverted, blotted and the remaining buffer aspirated. Each plate was then washed with 300 μl PBS, inverted and the remaining PBS aspirated.
Test compounds were dissolved in 100% DMSO and then diluted 1:25 in VCAM Cell Adhesion Assay Buffer (4 mM CaCl2, 4 mM MgCl2 in 50 mM TRIS-HCl, pH 7.5) (final DMSO=4%). A series of eight 1:4 dilutions were performed for each compound (general concentration range of 1 nM-12,500 nM). 100 μl/well of each dilution was added to the VCAM-coated plates, followed by 100 μl of Ramos cells (200,000 cells/well in 1% BSA/PBS). Plates containing test compounds and Ramos cells were allowed to incubate for 45 min at room temperature, after which 165 μl/well PBS was added. Plates were inverted to remove non-adherent cells, blotted and 300 μl/well PBS added. Plates were again inverted, blotted and the remaining buffer gently aspirated. 100 μl Lysis Buffer (0.1% SDS in 50 mM TRIS-HCl, pH 8.5) was added to each well and agitated for 2 min on a rotary shaking platform. The plates were then read for fluorescence intensity on a Cytofluor 2300 (Millipore) fluorecence measurement system (excitation=485 nm, emission=530 nm). The results are shown in the following Table II, where (A=IC50<100 nM, B=IC50<10000 nM): […]

SMILES | IC50
Cc1c(-c2ccc(C[C@H](NC(=O)c3c(Cl)cccc3Cl)C(=O)O)cc2)c(=O)n(C)c(=O)n1C [Example 6, N-[(2,6-dichlorophenyl)carbonyl]-4-(1,3,6-trimethyl-2,4-dioxo-5-pyrimidinyl)-L-phenylalanine] | < 100 nM
COCCC1(C(=O)N[C@@H](Cc2ccc(-c3c(C)n(C)c(=O)n(C)c3=O)cc2)C(=O)O)CCCC1 [Example 7, N-[[1-(2-methoxyethyl)cyclopentyl]carbonyl]-4-(1,3,6-trimethyl-2,4-dioxo-5-pyrimidinyl)-L-phenylalanine] | < 100 nM
Cc1cccc(Br)c1C(=O)N[C@@H](Cc1ccc(-c2c(C)n(C)c(=O)n(C)c2=O)cc1)C(=O)O [Example 8, N-[(2-bromo-6-methylphenyl)carbonyl]-4-(1,3,6-trimethyl-2,4-dioxo-5-pyrimidinyl)-L-phenylalanine] | < 100 nM
Cc1cccc(Cl)c1C(=O)N[C@@H](Cc1ccc(-c2c(C)n(C)c(=O)n(C)c2=O)cc1)C(=O)O [Example 9, N-[(2-chloro-6-methylphenyl)carbonyl]-4-(1,3,6-trimethyl-2,4-dioxo-5-pyrimidinyl)-L-phenylalanine] | < 100 nM
CCc1cccc(C)c1C(=O)N[C@@H](Cc1ccc(-c2c(C)n(C)c(=O)n(C)c2=O)cc1)C(=O)O [Example 10, N-[(2-ethyl-6-methylphenyl)carbonyl]-4-(1,3,6-trimethyl-2,4-dioxo-5-pyrimidinyl)-L-phenylalanine] | < 100 nM
Cc1cccc(C(C)C)c1C(=O)N[C@@H](Cc1ccc(-c2c(C)n(C)c(=O)n(C)c2=O)cc1)C(=O)O [Example 11, N-[[2-(2-methylethyl)-6-methylphenyl]carbonyl]-4-(1,3,6-trimethyl-2,4-dioxo-5-pyrimidinyl)-L-phenylalanine] | < 100 nM
Cc1c(-c2ccc(C[C@H](NC(=O)c3c(F)cccc3F)C(=O)O)cc2)c(=O)n(C)c(=O)n1C [Example 12, N-[(2,6-difluorophenyl)carbonyl]-4-(1,3,6-trimethyl-2,4-dioxo-5-pyrimidinyl)-L-phenylalanine] | < 100 nM
Cc1c(-c2ccc(C[C@H](NC(=O)c3c(F)cccc3C(F)(F)F)C(=O)O)cc2)c(=O)n(C)c(=O)n1C [Example 13, N-[(2-fluoro-6-(trifluoromethyl)phenyl)carbonyl]-4-(1,3,6-trimethyl-2,4-dioxo-5-pyrimidinyl)-L-phenylalanine] | < 100 nM
Cc1c(-c2ccc(C[C@H](NC(=O)c3c(C(C)C)cccc3C(C)C)C(=O)O)cc2)c(=O)n(C)c(=O)n1C [Example 14, N-[[2,6-di-(2-methylethyl)phenyl]carbonyl]-4-(1,3,6-trimethyl-2,4-dioxo-5-pyrimidinyl)-L-phenylalanine] | < 10000 nM
CCc1cccc(Cl)c1C(=O)N[C@@H](Cc1ccc(-c2c(C)n(C)c(=O)n(C)c2=O)cc1)C(=O)O [Example 15, N-[(2-chloro-6-ethylphenyl)carbonyl]-4-(1,3,6-trimethyl-2,4-dioxo-5-pyrimidinyl)-L-phenylalanine] | < 100 nM
CCCc1cccc(Cl)c1C(=O)N[C@@H](Cc1ccc(-c2c(C)n(C)c(=O)n(C)c2=O)cc1)C(=O)O [Example 16, N-[(2-chloro-6-propylphenyl)carbonyl]-4-(1,3,6-trimethyl-2,4-dioxo-5-pyrimidinyl)-L-phenylalanine] | < 100 nM
CCn1c(C)c(-c2ccc(C[C@H](NC(=O)c3c(Cl)cccc3Cl)C(=O)O)cc2)c(=O)n(CC)c1=O [Example 18, N-[(2,6-dichlorophenyl)carbonyl]-4-(1,3-diethyl-6-methyl-2,4-dioxo-5-pyrimidinyl)-L-phenylalanine] | < 100 nM
CCn1c(C)c(-c2ccc(C[C@H](NC(=O)c3c(C)cccc3Cl)C(=O)O)cc2)c(=O)n(CC)c1=O [Example 19, N-[(2-chloro-6-methylphenyl)carbonyl]-4-(1,3-diethyl-6-methyl-2,4-dioxo-5-pyrimidinyl)-L-phenylalanine] | < 100 nM
CCn1c(C)c(-c2ccc(C[C@H](NC(=O)C3(CCOC)CCCC3)C(=O)O)cc2)c(=O)n(CC)c1=O [Example 20, 4-(1,3-diethyl-6-methyl-2,4-dioxo-5-pyrimidinyl)-N-[[1-(2-methoxyethyl)cyclopentyl]carbonyl]-L-phenylalanine] | < 100 nM
Cn1c(C(F)(F)F)c(-c2ccc(C[C@H](NC(=O)c3c(Cl)cccc3Cl)C(=O)O)cc2)c(=O)n(C)c1=O [Example 21, N-[1-(2,6-dichlorophenyl)carbonyl]-4-(1,3-dimethyl-2,4-dioxo-6-(trifluoromethyl)-5-pyrimidinyl)-L-phenylalanine] | < 100 nM
Cc1cccc(Cl)c1C(=O)N[C@@H](Cc1ccc(-c2c(C(F)(F)F)n(C)c(=O)n(C)c2=O)cc1)C(=O)O [Example 22, N-[(2-chloro-6-methylphenyl)carbonyl]-4-[1,3-dimethyl-2,4-dioxo-6-(trifluoromethyl)-5-pyrimidinyl]-L-phenylalanine] | < 100 nM
Cn1c(C(F)(F)F)c(-c2ccc(C[C@H](NC(=O)c3c(F)cccc3C(F)(F)F)C(=O)O)cc2)c(=O)n(C)c1=O [Example 23, N-[[2-fluoro-6-(trifluoromethyl)phenyl]carbonyl]-4-(1,3-dimethyl-2,4-dioxo-6-(trifluoromethyl)-5-pyrimidinyl)-L-phenylalanine] | < 100 nM
Cc1cc(C[C@H](NC(=O)c2c(C)cccc2Cl)C(=O)O)ccc1-c1cn(C)c(=O)n(C)c1=O [Example 24, N-[(2-chloro-6-methylphenyl)carbonyl]-4-(1,3-dimethyl-2,4-dioxo-5-pyrimidinyl)-3-methyl-L-phenylalanine] | < 10000 nM
Cc1cc(C[C@H](NC(=O)c2c(Cl)cccc2Cl)C(=O)O)ccc1-c1cn(C)c(=O)n(C)c1=O [Example 25, N-[(2,6-dichlorophenyl)carbonyl]-4-(1,3-dimethyl-2,4-dioxo-5-pyrimidinyl)-3-methyl-L-phenylalanine] | < 100 nM
Cc1cc(C[C@H](NC(=O)c2c(Cl)cccc2Cl)C(=O)O)ccc1-c1c(C)n(C)c(=O)n(C)c1=O [Example 26, N-[(2,6-dichlorophenyl)carbonyl]-4-(1,3,6-trimethyl-2,4-dioxo-5-pyrimidinyl)-3-methyl-L-phenylalanine] | < 10000 nM
CCOC(=O)[C@H](Cc1ccc(-c2c(C)n(C)c(=O)n(C)c2=O)cc1)NC(=O)c1c(Cl)cccc1Cl [Example 27, N-[(2,6-dichlorophenyl)carbonyl]-4-(1,3,6-trimethyl-2,4-dioxo-5-pyrimidinyl)-L-phenylalanine ethyl ester] | < 10000 nM
